Test results taken from patent publication US20100179103A1 (priority 2008, published 2010).

What was measured:
[1] = system: carrageenan paw inflammation; assay: mouse carrageenan paw inflammation (paw edema) model; assay type: in vivo; conditions: 3 hours; p.o. gavage; curcumin 30 mg/kg, CDC 30 mg/kg, indomethacin 5 mg/kg; male CD-1 mice
[2] = in vivo; cited from earlier work

Structure (SMILES) | swelling (edema: left paw thickness minus right paw thickness) [1] | Tmax [2]
COc1ccc2c(c1)c(CC(=O)O)c(C)n2C(=O)c1ccc(Cl)cc1 [indomethacin, Indomethacin] | 0.73 mm | 
COc1cc(/C=C/C(=O)CC(=O)/C=C/c2ccc(O)c(OC)c2)ccc1O [curcumin, Curcumin] | 0.66 mm | 3 to 5 min
